Laboratory results published in patent publication US20250296959A1, “B7-H3 TARGETING PEPTIDES AND CONSTRUCTS THEREOF” (Mariana Oncology Inc., priority 2024, published 2025).
Starred links: 1 amine or outer side, 2 acyl side, 3 side chain; linkers in the order of their positions; H or OH if unused. Positions of bridges follow the written chain, without caps; N, C: chain ends. Non-standard residues stand in square brackets, D forms with d. Residues, ends and D or L forms follow the SMILES beside them. *: point of attachment. Ala(piperidin-4-yl) = O=C([C@H](CC1CCN([*:3])CC1)N[*:1])[*:2]; DOTA = O=C(O)CN1CCN(CC(=O)O)CCN(CC(=O)*)CCN(CC(=O)O)CC1; Trp(5-F) = N[C@@H](Cc1c[nH]c2ccc(F)cc12)C(=O)O; Trp(7-aza) = N[C@@H](Cc1c[nH]c2ncccc12)C(=O)O; Trp(1-Me) = Cn1cc(C[C@H](N)C(=O)O)c2ccccc21; hLeu = CC(C)CC[C@H](N)C(=O)O; Nle = CCCC[C@H](N)C(=O)O; Dab = NCC[C@H](N)C(=O)O

Target: T1, human 4lg B7-H3 (Homo sapiens, UniProt Q5ZPR3)
T1 sequence (Q5ZPR3 29-534): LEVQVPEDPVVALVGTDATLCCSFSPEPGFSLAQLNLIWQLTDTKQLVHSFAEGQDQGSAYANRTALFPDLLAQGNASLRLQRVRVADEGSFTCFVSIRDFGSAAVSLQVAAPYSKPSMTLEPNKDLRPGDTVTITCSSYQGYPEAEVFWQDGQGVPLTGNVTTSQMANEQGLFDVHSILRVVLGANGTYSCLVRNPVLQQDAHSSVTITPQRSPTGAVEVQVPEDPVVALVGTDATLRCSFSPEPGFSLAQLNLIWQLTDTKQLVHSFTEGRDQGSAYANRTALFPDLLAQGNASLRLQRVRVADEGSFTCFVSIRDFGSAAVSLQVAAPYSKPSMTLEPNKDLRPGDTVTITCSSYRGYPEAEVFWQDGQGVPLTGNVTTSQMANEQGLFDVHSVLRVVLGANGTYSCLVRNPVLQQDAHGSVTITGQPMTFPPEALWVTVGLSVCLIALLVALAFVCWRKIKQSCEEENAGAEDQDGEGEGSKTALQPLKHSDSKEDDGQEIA
Test: Affinity determination by surface plasmon resonance (SPR) to 4Ig B7-H3
Conditions: SPR KD—25° C., 4Ig B7-H3; 25° C. flow cell temperature

| Structure (SMILES) | Kd [µM] |
| --- | --- |
| CCCC[C@H](NC(C)=O)C(=O)N[C@@H](Cc1ccc(O)cc1)C(=O)N[C@H]1CSSC[C@@H](C(=O)N[C@@H](Cc2c[nH]c3ccccc23)C(=O)N[C@@H](Cc2ccccc2)C(=O)N[C@@H](CCN)C(=O)N[C@H](CCCCNC(=O)CN2CCN(CC(=O)O)CCN(CC(=O)O)CCN(CC(=O)O)CC2)C(N)=O)NC(=O)[C@H](Cc2ccc(O)cc2)NC(=O)[C@H](C(C)C)NC(=O)[C@H](CC(=O)O)NC(=O)[C@H](Cc2ccc(O)cc2)NC(=O)[C@H](CCCCN)NC(=O)CNC(=O)[C@H](C(C)C)NC1=O [compound 131, Ac-Nle-Y-C-V-G-K-Y-D-V-Y-C-W-F-Dab-dLys(DOTA)-CONH2] (Ac-[Nle]YCVGKYDVYCWF[Dab][dK](DOTA)-NH2; disulfide 3-11) | 0.01 to 0.1 |
| CCCC[C@H](NC(C)=O)C(=O)N[C@@H](Cc1ccc(O)cc1)C(=O)N[C@H]1CSSC[C@@H](C(=O)N[C@@H](Cc2c[nH]c3ncccc23)C(=O)N[C@@H](Cc2ccccc2)C(=O)N[C@H](C(=O)N[C@H](CCCCNC(=O)CN2CCN(CC(=O)O)CCN(CC(=O)O)CCN(CC(=O)O)CC2)C(N)=O)[C@@H](C)O)NC(=O)[C@H](Cc2ccc(O)cc2)NC(=O)[C@H](C(C)C)NC(=O)[C@H](CC(=O)O)NC(=O)[C@H](Cc2ccc(O)cc2)NC(=O)[C@H](CCCCN)NC(=O)CNC(=O)[C@H](C(C)C)NC1=O [compound 134, Ac-Nle-Y-C-V-G-K-Y-D-V-Y-C-7NW-F-Thr-dLys(DOTA)-CONH2] (Ac-[Nle]YCVGKYDVYC[Trp(7-aza)]FT[dK](DOTA)-NH2; disulfide 3-11) | 0.01 to 0.1 |

Next, values leading:

| Kd [µM] | Structure (SMILES) |
| --- | --- |
| 0.001 to 0.01 | CCCC[C@H](NC(C)=O)C(=O)N[C@@H](Cc1ccc(O)cc1)C(=O)N[C@H]1CSSC[C@@H](C(=O)N[C@@H](Cc2cn(C)c3ccccc23)C(=O)N[C@@H](Cc2ccccc2)C(=O)N[C@H](C(=O)N[C@H](CCCCNC(=O)CN2CCN(CC(=O)O)CCN(CC(=O)O)CCN(CC(=O)O)CC2)C(N)=O)[C@@H](C)O)NC(=O)[C@H](Cc2ccc(O)cc2)NC(=O)[C@H](C(C)C)NC(=O)[C@H](CC(=O)O)NC(=O)[C@H](Cc2ccc(O)cc2)NC(=O)[C@H](CCCCN)NC(=O)CNC(=O)[C@H](C(C)C)NC1=O [compound 132, Ac-Nle-Y-C-V-G-K-Y-D-V-Y-C-Trp(Me)-F-Thr-dLys(DOTA)-CONH2] (Ac-[Nle]YCVGKYDVYC[Trp(1-Me)]FT[dK](DOTA)-NH2; disulfide 3-11) |
| 0.001 to 0.01 | CCCC[C@H](NC(C)=O)C(=O)N[C@@H](Cc1ccc(O)cc1)C(=O)N[C@H]1CSSC[C@@H](C(=O)N[C@@H](Cc2c[nH]c3ccc(F)cc23)C(=O)N[C@@H](Cc2ccccc2)C(=O)N[C@H](C(=O)N[C@H](CCCCNC(=O)CN2CCN(CC(=O)O)CCN(CC(=O)O)CCN(CC(=O)O)CC2)C(N)=O)[C@@H](C)O)NC(=O)[C@H](Cc2ccc(O)cc2)NC(=O)[C@H](C(C)C)NC(=O)[C@H](CC(=O)O)NC(=O)[C@H](Cc2ccc(O)cc2)NC(=O)[C@H](CCCCN)NC(=O)CNC(=O)[C@H](C(C)C)NC1=O [compound 133, Ac-Nle-Y-C-V-G-K-Y-D-V-Y-C-5FW-F-Thr-dLys(DOTA)-CONH2] (Ac-[Nle]YCVGKYDVYC[Trp(5-F)]FT[dK](DOTA)-NH2; disulfide 3-11) |
| 0.001 to 0.01 | CC(=O)N[C@@H](CCC(C)C)C(=O)N[C@@H](Cc1ccc(O)cc1)C(=O)N[C@H]1CSSC[C@@H](C(=O)N[C@@H](Cc2c[nH]c3ccccc23)C(=O)N[C@@H](Cc2ccccc2)C(=O)N[C@H](C(=O)N[C@H](CCCCNC(=O)CN2CCN(CC(=O)O)CCN(CC(=O)O)CCN(CC(=O)O)CC2)C(N)=O)[C@@H](C)O)NC(=O)[C@H](Cc2ccc(O)cc2)NC(=O)[C@H](C(C)C)NC(=O)[C@H](CC(=O)O)NC(=O)[C@H](CC2CCNCC2)NC(=O)[C@H](CCCCN)NC(=O)CNC(=O)[C@H](C(C)C)NC1=O [compound 135, Ac-hLeu-Y-C-V-G-K-PipAla-D-V-Y-C-W-F-Thr-dLys(DOTA)-CONH2] (Ac-[hLeu]YCVGK[Ala(piperidin-4-yl)]DVYCWFT[dK](DOTA)-NH2; disulfide 3-11) |
